Reference: article PMC5115768, “Crystal Structure and Pyridoxal 5-Phosphate Binding Property of Lysine Decarboxylase from Selenomonas ruminantium” (PLoS ONE, 2016)

Legend:
[1] = biological target: T1, SrLDC (lysine decarboxylase from Selenomonas ruminantium) (Pseudoselenomonas ruminantium, UniProt O50657); assay: isothermal titration calorimetry, independent binding model
T1 construct: gene ldc; residues 1-399 as printed (count probably includes the C-terminal 6xHis; sheet domain ends at Val393); pET-22b(+), C-terminal 6xHis kept; E. coli BL21(DE3)-T1R

[2] = biological target: T1, SrLDC (lysine decarboxylase from Selenomonas ruminantium); assay: X-ray crystal structure, […] Å; format: binding; details: PLP-complexed crystal soaked with 10 mM L-lysine for 30 min; cadaverine observed instead; pH 4.2; active site at dimer interface
[3] = biological target: Lysine decarboxylase from Selenomonas ruminantium (Selenomonas ruminantium); assay: crystal structure; three crystal forms: apo I (P43212, one molecule per asymmetric unit, dimer generated by crystallographic symmetry), apo II (C2, a dimer in the asymmetric unit), PLP/cadaverine complex (P6322, one molecule per asymmetric unit); hanging-drop vapor diffusion at 20°C; protein in 40 mM Tris-HCl, pH 8.0

T1 sequence (O50657 whole entry, the tested form may be a part): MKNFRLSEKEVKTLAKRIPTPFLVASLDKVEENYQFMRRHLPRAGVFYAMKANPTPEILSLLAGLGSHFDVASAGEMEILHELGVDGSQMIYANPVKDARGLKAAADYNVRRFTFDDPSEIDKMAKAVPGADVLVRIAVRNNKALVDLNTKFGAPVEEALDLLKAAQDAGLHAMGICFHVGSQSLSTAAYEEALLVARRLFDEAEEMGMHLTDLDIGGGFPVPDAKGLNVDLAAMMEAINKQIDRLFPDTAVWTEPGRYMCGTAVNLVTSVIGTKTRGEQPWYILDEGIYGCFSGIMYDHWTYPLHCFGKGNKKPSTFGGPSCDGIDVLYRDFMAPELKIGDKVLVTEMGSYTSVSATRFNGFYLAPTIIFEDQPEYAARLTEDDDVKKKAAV

## Cc1ncc(COP(=O)(O)O)c(C=O)c1O [PLP]
[1]
  Kd: 72 µM

## NCCCCCN [cadaverine]
[2]
  X-ray crystal structure, 2.5 Å: soaked the crystals of SrLDC complexed with PLP in L-lysine, a cadaverine molecule was observed

## Lysine decarboxylase from Selenomonas ruminantium (enzyme)
[3]
  stoichiometry N: 2
